Values of other authors as cited in patent publication US11999734B2, “Compounds and compositions for the treatment of cystic fibrosis” (Fondazione Istituto Italiano Di Tecnologia, priority 2018, dated 2024).

Assays:
F508del-CFTR = F508del-CFTR (Homo sapiens, UniProt P13569, DEL508-508); settings: chronic treatment of cells with VX-770; Cholon et al. 2014, Veit et al. 2014
F508del-CFTR, sequence (P13569 with tags, fused parts or gaps DEL508-508): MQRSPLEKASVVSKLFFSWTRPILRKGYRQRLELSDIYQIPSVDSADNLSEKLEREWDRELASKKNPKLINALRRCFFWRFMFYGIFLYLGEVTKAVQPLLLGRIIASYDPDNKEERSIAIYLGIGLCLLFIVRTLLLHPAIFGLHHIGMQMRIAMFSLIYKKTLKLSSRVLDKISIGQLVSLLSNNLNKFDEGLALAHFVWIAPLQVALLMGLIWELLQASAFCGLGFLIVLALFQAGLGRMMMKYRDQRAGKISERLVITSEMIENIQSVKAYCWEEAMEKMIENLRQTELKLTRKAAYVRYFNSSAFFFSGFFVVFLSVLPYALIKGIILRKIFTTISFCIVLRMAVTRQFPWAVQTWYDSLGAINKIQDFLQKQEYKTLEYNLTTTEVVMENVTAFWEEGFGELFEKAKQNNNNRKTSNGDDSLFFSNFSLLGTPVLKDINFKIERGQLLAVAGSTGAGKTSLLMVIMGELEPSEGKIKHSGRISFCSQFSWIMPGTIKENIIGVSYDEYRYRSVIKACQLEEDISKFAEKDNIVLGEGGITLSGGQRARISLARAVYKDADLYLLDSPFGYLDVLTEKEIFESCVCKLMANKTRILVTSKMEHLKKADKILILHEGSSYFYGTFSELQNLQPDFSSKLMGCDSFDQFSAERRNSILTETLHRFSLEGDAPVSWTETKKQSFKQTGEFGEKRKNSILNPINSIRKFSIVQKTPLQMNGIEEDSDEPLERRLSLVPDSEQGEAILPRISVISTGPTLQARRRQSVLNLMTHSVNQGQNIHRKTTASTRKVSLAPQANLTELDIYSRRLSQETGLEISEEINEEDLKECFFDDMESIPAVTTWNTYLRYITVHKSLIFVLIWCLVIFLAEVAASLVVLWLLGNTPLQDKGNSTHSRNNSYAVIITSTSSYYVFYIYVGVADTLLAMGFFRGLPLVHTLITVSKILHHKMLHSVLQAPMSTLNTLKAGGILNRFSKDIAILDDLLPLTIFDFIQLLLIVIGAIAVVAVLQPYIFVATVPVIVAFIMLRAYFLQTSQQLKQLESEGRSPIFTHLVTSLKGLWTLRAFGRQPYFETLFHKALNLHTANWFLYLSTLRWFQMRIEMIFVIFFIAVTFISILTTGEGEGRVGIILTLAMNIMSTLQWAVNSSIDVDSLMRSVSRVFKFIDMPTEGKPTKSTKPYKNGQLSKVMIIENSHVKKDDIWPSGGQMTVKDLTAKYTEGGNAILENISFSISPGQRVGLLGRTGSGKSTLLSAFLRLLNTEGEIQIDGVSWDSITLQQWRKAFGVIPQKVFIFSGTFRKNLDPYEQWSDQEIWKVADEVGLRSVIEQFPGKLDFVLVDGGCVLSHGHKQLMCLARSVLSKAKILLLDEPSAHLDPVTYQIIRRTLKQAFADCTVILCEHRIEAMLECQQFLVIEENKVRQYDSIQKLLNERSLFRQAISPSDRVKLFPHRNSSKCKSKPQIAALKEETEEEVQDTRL

Compound	efficacy in clinical trials (CF patients; VX-770, Ramsey et al. 2011)	effect on corrector activity of VX-809 (F508del-CFTR)	therapeutic benefit in clinical trials (CF patients; CF patients with F508del mutation, Clancy et al. 2012)
CC(C)(C)c1cc(C(C)(C)C)c(NC(=O)c2c[nH]c3ccccc3c2=O)cc1O [VX-770, ivacaftor]	high efficacy	decreases the corrector activity of VX-809	
Cc1ccc(NC(=O)C2(c3ccc4c(c3)OC(F)(F)O4)CC2)nc1-c1cccc(C(=O)O)c1 [VX-809, lumacaftor]			did not show a clear therapeutic benefit
